The nature of the data set: Emulsification test after simulated long term storage at 50° C. (Testing Example 6). It is filed as physicochemical. Particulars: for re-emulsification compared with composition with no biocide: after storage at 50° C. for 32 and 70 days. As to the method: Where required, solutions were preheated to aid in dissolution of surfactants. Once the various components had been dissolved into solution, final oil-in-water emulsion composition were blended using high shear mixing (Polytron, Brinkmann Instruments). For solutions containing monomeric surfactants, solutions were subjected to high shear mixing for 5 minutes, while solutions containing polymeric surfactants were subjected to high shear mixing for 15 minutes. Once blending was completed, samples were assessed for quality of emulsification and then placed at 50° C. for up to 70 days, with additional assessments occurring at different time points throughout the storage period. Quality of emulsification was assessed using the method described below. Samples were placed at 50° C. to accelerate storage stability testing, as 4 weeks at 50° C. is representative of 2 years at ambient temperature (CIPAC MT 46.3). The following method was used to evaluate the tested emulsions. The method was performed using a 100 mL graduated cylinder and a pipette (capable of measuring at least 1 mL). The oil-in-water emulsion compositions evaluated in this example were tested as follows: • 1. If ready-to-use spray oil solutions were under storage conditions (e.g., storage for two weeks at 54° C.), the solution was shaken to allow the contents to re-emulsify. • 2. A graduated cylinder was filled with 100 mL of an oil-in-water emulsion composition, and the amount was adjusted as necessary using a pipette. The test solution was allowed to sit for 15 minutes to permit the emulsion to break and to let the majority of the foam generated in step 1 (FIG. 1A) to disappear before moving to step 3. […] The foam should be allowed to settle before inverting cylinders. Even with inversion of cylinders (vs. shaking), some foaming can occur (FIG. 1(B)). • 3. A stopper was placed on the graduated cylinder and the graduated cylinder was inverted 10 times. It was important to invert and not shake the cylinder to prevent excess foaming. • 4. […] Rating were based on the following scale (1-10). […] Specifically, FIG. 2 is an example of an oil-in-water emulsion composition with a rating of 10 (best) at five minutes after inversion. The solution is a homogeneous, milky emulsion (left) and lacks an oil layer or creaming on the surface (right). […] The solution is a homogeneous, milky emulsion (left), but with creaming and some oil coalescence on surface (right). Finally, FIG. 4 is an example of an oil-in-water emulsion composition with a rating of 1 (worst) at five minutes after inversion. The solution has a cloudy appearance, lacks a homogeneous, milky emulsion (left), and has a layer of large, coalesced oil deposits at the surface of the solution (right). The figures were used in the examples described herein as a reference only.

Setting [1] is: Base oil Group III, Alcohol ethoxylate/alkyl glyceride, 70 days of storage (50° C.), 10 = best, 1 = worst.

Structures are written as SMILES.

For `COC(=O)c1ccc(O)cc1` [Methyl paraben, methyl paraben], the “re-emulsification compared with composition with no biocide” value is given as “improved re-emulsification”. Further, under setting [1], the “Emulsion Rating (1-10)” value was 5.
`CCCOC(=O)c1ccc(O)cc1` [Propyl paraben, propyl paraben]: the “re-emulsification compared with composition with no biocide” value is recorded as “improved re-emulsification”. The “Emulsion Rating (1-10)” value under setting [1] is on record as 5.
Turning to `C/C=C/C=C/C(=O)O` [sorbic acid, reference compound], the “re-emulsification compared with composition with no biocide” value is “comparable or worse emulsification quality”.
In the case of `O=C([O-])c1ccccc1.[Na+]` [Sodium benzoate, sodium benzoate], the “re-emulsification compared with composition with no biocide” value was “improved re-emulsification”. The “Emulsion Rating (1-10)” value under setting [1] is given as 6.
Regarding `O=C(O)c1ccccc1` [Benzoic acid, benzoic acid], the “re-emulsification compared with composition with no biocide” value is recorded as “improved re-emulsification”. Besides, where the note is “Base oil Group I, Alcohol ethoxylate/alkyl glyceride, 70 days of storage (50° C.)”, the “Emulsion Rating (1-10)” value was 6. Under “Base oil Group II, Alcohol ethoxylate/alkyl glyceride, 70 days of storage (50° C.)”, the “Emulsion Rating (1-10)” value is recorded as 7. Under setting [1], the “Emulsion Rating (1-10)” value is 7. Moreover, the “Emulsion Rating (1-10)” value (Base oil Group III, Alkyl polysaccharide, 27 days of storage (50° C.)) is on record as 8. Moreover, the “Emulsion Rating (1-10)” value (Base oil Group III, Block copolymer, 27 days of storage (50° C.)) was 8. Further, the “Emulsion Rating (1-10)” value (Base oil Group III, Polyoxyethylene amine quarternary/alkyl glyceride, 27 days of storage (50° C.)) is recorded as 4. In addition, the “Emulsion Rating (1-10)” value (Base oil Group III, Random polymeric/Block copolymer, 64 days of storage (50° C.)) is 5. Further, the “Emulsion Rating (1-10)” value (Base oil Group IV, Alcohol ethoxylate/alkyl glyceride, 70 days of storage (50° C.)) is given as 6. Also, the “effect on re-emulsification, single surfactant” value (“effect … single surfactant” for short) (alcohol ethoxylate, amine alkybenzenesulfonate (anionic), polyoxyethylene amine quarternary (cationic) or polyethylene glycol) is “no impact”. The “effect … single surfactant” value (alkyl glyceride, random polymeric, sorbitan monooleate, sorbitan fatty acid ester, or dodecyl phenol) is listed as “negatively affected”. Also, the “effect … single surfactant” value (block copolymer or alkyl polysaccharide surfactant) is “improved re-emulsification”. The “effect on re-emulsification, surfactant pairs” value (shortened to “effect … surfactant pairs”) (dodecyl phenol + alcohol ethoxylate, alcohol ethoxylate + amine alkylbenzenesulfonate (anionic), sorbitan monooleate + polyoxyethylene (20) sorbitan monooleate) is “no impact”. Also, under “group I, group II, group III, and group IV (poly-alpha-olefins) base oils”, the “re-emulsification compared with compositions without benzoic acid” value is reported as “improved re-emulsification”. For the same compound, the “effect … surfactant pairs” value (polyethylene glycol monostearate + alkyl glyceride, alkyl polysaccharide + alkyl glyceride) is on record as “negatively affected”. Further, where the note is “random polymeric + block copolymer (64 days), polyoxyethylene amine quarternary + alkyl glyceride (27 days), alcohol ethoxylate + alkyl glyceride (70 days), 50° C.”, the “effect … surfactant pairs” value is “improved re-emulsification”.

Source of the values: US20200281209A1, “STABILIZED EMULSIONS” (Suncor Energy Inc., priority 2016, published 2020).
